From ChEMBL document CHEMBL5131559, “Discovery and Preclinical Profiling of GSK3839919, a Potent HIV-1 Allosteric Integrase Inhibitor” (ACS Med Chem Lett, 2022)

Assays:
[1] = Toxicity in human Huh-7 cells assessed as fold change in lipid droplet count at 10 uM incubated for 48 hrs by plate reader assay; format: cell-based; details: huh-7, 48 h
[2] = Toxicity in rat Hepatoma cell line assessed as fold change in lipid droplet count at 10 uM incubated for 48 hrs by plate reader assay; format: cell-based
[3] = test system: Human immunodeficiency virus 1; assay: Antiviral activity against recombinant HIV1 NLRep-Rluc harbouring polymorphic T124/T125 integrase infected in human MT-2 cells assessed as inhibition of virus growth in presence of fetal bovine serum by measuring luciferase activity after 4 days; format: functional, organism-based; details: Human immunodeficiency virus 1, NLRep, MT2, 96 h
[4] = test system: Human immunodeficiency virus 1; assay: Antiviral activity against recombinant HIV1 NLRep-Rluc harbouring polymorphic N124/A125 integrase infected in human MT-2 cells assessed as inhibition of virus growth in presence of fetal bovine serum by measuring luciferase activity after 4 days; format: functional, organism-based; details: Human immunodeficiency virus 1, NLRep, MT2, 96 h
[5] = Cytotoxicity against human MT2 cells; format: toxicity, cell-based
[6] = test system: Human immunodeficiency virus 1; assay: Antiviral activity against recombinant HIV1 NLRep-Rluc harbouring polymorphic T124/T125 integrase infected in human MT-2 cells assessed as fold change in inhibition of virus growth in presence of fetal bovine serum by measuring luciferase activity after 4 days; format: functional; set-up: reference not given here; details: time 4 day
[7] = Clearance in Sprague-Dawley rat at 1 mg/kg, iv by LC-MS/MS analysis; format: ADME, organism-based; details: in vivo
[8] = AUC (0 to infinity) in Sprague-Dawley rat at 5 mg/kg, po by LC-MS/MS analysis; format: ADME, organism-based; set-up: time infinity, dose 5 mg/kg, route po; details: in vivo
[9] = Oral bioavailability in Sprague-Dawley rat at 5 mg/kg by LC-MS/MS analysis; format: ADME, organism-based; details: in vivo
[10] = Metabolic stability in human liver microsomes assessed as parent compound disappearance by measuring half life at 0.5 uM in presence of NADPH by LC-MS/MS analysis; format: ADME, Microsome

SMILES | fold change (FC) [1] | fold change (FC) [2] | EC50 [3] [nM] | EC50 [4] [nM] | CC50 [5] [nM] | fold change (FC) [6] | clearance [7] [mL/min/kg] | AUC(0-inf) [8] [µM·h] | bioavailability [9] [%] | half-life at 0.5 µM [10] [min]
Cc1ncc(-c2ccc(OCCc3ccc(F)cc3)cc2)c(N2CCC(C)(C)CC2)c1[C@H](OC(C)(C)C)C(=O)O | 2.9 | 2.5 | – | – | – | – | – | – | – | –
Cc1nc(C)c([C@H](OC(C)(C)C)C(=O)O)c(N2CCC(C)(C)CC2)c1-c1ccc2c(c1)CC[C@H](Cc1ccc(F)cc1)O2 | – | – | 2.5 | 12.8 | ≥ 22000 | 5 | – | – | – | –
Cc1nc(C)c([C@H](OC(C)(C)C)C(=O)O)c(N2CCC(C)(C)CC2)c1-c1ccc2c(c1)CCN(c1nc3cnccc3s1)C2 | – | – | 1.5 | 2.6 | ≥ 17000 | – | 14.8 | 10.8 | > 100 | –
Cc1nc(C)c([C@H](OC(C)(C)C)C(=O)O)c(N2CCC(C)(C)CC2)c1-c1ccc2c(c1)CCN(Cc1cccc(F)c1F)C2 | – | – | 4.2 | 13.6 | ≥ 24000 | – | 8.1 | 8.4 | 50 | –
Cc1nc(C)c([C@H](OC(C)(C)C)C(=O)O)c(N2CCC(C)(C)CC2)c1-c1cnn(CCCc2ccc(F)cc2)c1 | – | – | 8.8 | – | ≥ 22000 | 4.8 | – | – | – | 34
Cc1nc(C)c([C@H](OC(C)(C)C)C(=O)O)c(N2CCC(C)(C)CC2)c1-c1ccc(OCCc2ccc(F)cc2)nc1 | – | – | 12.3 | – | ≥ 22000 | 7.2 | – | – | – | > 120
Cc1nc(C)c([C@H](OC(C)(C)C)C(=O)O)c(N2CCC(C)(C)CC2)c1-c1cnc(OCCc2ccc(F)cc2)nc1 | – | – | 9 | – | ≥ 22000 | 4.8 | – | – | – | 22
Cc1nc(C)c([C@H](OC(C)(C)C)C(=O)O)c(N2CCC(C)(C)CC2)c1-c1ccc2c(c1)CCN(Cc1ccc(F)cc1)C2 | – | – | 5.9 | – | ≥ 22000 | 3.7 | – | – | – | 55
Cc1nc(C)c([C@H](OC(C)(C)C)C(=O)O)c(N2CCC(C)(C)CC2)c1-c1ccc2c(c1)CC[C@@H](Cc1ccc(F)cc1)O2 | – | – | 1.5 | 7.3 | ≥ 22000 | 5 | – | – | – | –
Cc1cccc(F)c1CN1CCc2cc(-c3c(C)nc(C)c([C@H](OC(C)(C)C)C(=O)O)c3N3CCC(C)(C)CC3)ccc2C1 | – | – | 5.6 | 5.3 | ≥ 24000 | – | 5.8 | 16 | 70 | –
